Assay results published in patent publication US20260284240A1, “RADIOLABELED COMPOUND FOR USE IN A METHOD OF TREATING CARBONIC ANHYDRASE IX POSITIVE DISEASES” (DEBIOPHARM INTERNATIONAL S.A., priority 2023, published 2026).
Starred links: 1 amine or outer side, 2 acyl side, 3 side chain; linkers in the order of their positions; H or OH if unused. Positions of bridges follow the written chain, without caps; N, C: chain ends. Non-standard residues stand in square brackets, D forms with d. Residues, ends and D or L forms follow the SMILES beside them. *: point of attachment. Phe(3-NHCO(CH2)3SO2NH2) = N[C@@H](Cc1cccc(NC(=O)CCCS(N)(=O)=O)c1)C(=O)O; DOTA = O=C(O)CN1CCN(CC(=O)O)CCN(CC(=O)*)CCN(CC(=O)O)CC1; mXylylene = c1cc(C[*:1])cc(C[*:2])c1; X1 = O=C(CN1CCN([*:1])CC1)[*:2]

How the values were obtained:
[1] = Biodistribution of In-111-labeled compounds by SPECT/CT in SK-RC-52 tumor-bearing mice, with or without gelofusine; type: in vivo, mouse; conditions: mouse, in vivo
Description: (§1) The effect on tumor uptake of prior injection of gelofusine for kidney protection was investigated in mice bearing the SK-RC-52 tumor. Biodistribution was evaluated using in vivo SPECT/CT imaging.
(§2) The study was performed in female NMRI nude mice (approximately 6 weeks of age) from Janvier Labs, France, housed up to 5 mice per cage.
(§3) The column was washed with 2 mL water, and then the final product was eluted from the column in EtOH solution (50%) • The sample was formulated in PBS to the final concentration of 150 MBq/mL and 5 nmol/mL.
(§4) HT-29 cells were cultured in McCoy's 5a Medium Modified (Sigma #M9309). For inoculation of HT-29 cells, cells were harvested, washed twice in PBS and resuspended at 5×10^7 cells/mL in PBS. Cells were kept on ice until inoculation.
(§5) Animals were anaesthetized (isoflurane, 2-4% in ambient air supplemented with 100% O2) prior to tumor inoculation. The tumor cells (100 μL suspension of either SK-RC-52 cells (2×10^6 cells/animal) or HT-29 cells (5×10^6 cells/animal)) were subcutaneously inoculated in the right flank using a 1-mL syringe equipped with a 27G needle. Tumor growth and animal weight were measured twice per week. Tumor size was measured by caliper and the volume was estimated using the following formula: 0.52×(length×width^2). When tumor sizes reached 150-250 mm^3, animals were randomized into groups (n=3) of similar average tumor volume and body weight.
(§6) CT was performed with helical scan, 300 ms exposure, reconstruction resolution of 250 μm. SPECT was performed with multi-pinhole scan and a 30 s frame time. For the quantification of the radioactivity uptake, regions of interests (ROIs) were drawn over the tumor, kidney, liver, and heart (estimate of blood) identified on the images. Uptake was expressed as percent of injected dose per gram tissue (% ID/g).

[2] = test system: SK-RC-52 tumor; assay: as above; type: in vivo, mouse
Description: as §1, §2, §3, §4, §5, §6

[3] = Biodistribution of In-111-labeled compounds by SPECT/CT in HT-29 tumor-bearing mice; type: in vivo, mouse; conditions: mouse
Description: (§7) The effect on tumor uptake of prior injection of gelofusine for kidney protection was investigated in mice bearing the SK-RC-52 tumor. Biodistribution was evaluated using in vivo SPECT/CT imaging. Prior to the in vivo study the compounds (ligands) were initially radiolabeled with In-111 and the stability of radiolabeled compounds was evaluated in buffer at three different timepoints.
as §2, §3
(§8) SK-RC-52 cells were cultured in RPMI 1640 with GlutaMax-I (Thermo Fisher Scientific #61870044) supplemented with 10% fetal bovine serum+1% penicillin/streptomycin, harvested, washed twice in RPMI 1640 and resuspended at 2×10^7 cells/mL in RPMI 1640. HT-29 cells were cultured in McCoy's 5a Medium Modified (Sigma #M9309). For inoculation of HT-29 cells, cells were harvested, washed twice in PBS and resuspended at 5×10^7 cells/mL in PBS. Cells were kept on ice until inoculation.
as §5
(§9) Animals were injected intravenously with In-111-labeled compounds (single bolus, 22.3-31.2 MBq, ~1 nmol ligand, injection volume: 100 μL) in the lateral tail vein using a 29G syringe.
as §6

[4] = test system: HT-29 tumor; assay: as above; type: in vivo, mouse
Description: as §7, §2, §3, §8, §5, §9, §6

[5] = Cardiovascular and respiratory safety pharmacology (jacketed external telemetry) in dogs; type: in vivo; conditions: dog, any dose or timepoint
From the text: (§10) The test item treatment led to unaffected body weights, weight gains, and food intake. Likewise, no treatment-related abnormalities were reported during ophthalmic examinations, urinalysis, blood biochemistry, coagulation, and hematology investigations. There were no related organ weight changes and macroscopic and microscopic observations at early and late necropsies. Jacketed external telemetry was used to evaluate the potential cardiovascular and respiratory effects in the Subset B. Cardiorespiratory telemetry recordings were performed during the pre-test, Day 1 and 14. […] Arterial blood pressure parameters (systolic and diastolic blood pressure and mean arterial pressure) were measured continuously during consecutive 30-minute periods at pre-dose and for up to 6 h after dosing and over consecutive 60-minute periods up to 24 h after dosing. The respiratory rate was monitored on the pre-test, Day 1 and Day 14 at 0.5, 1, 2, 3, 4, 6, 8, 12, 16, 20, and 24 h. […] The potential effects on central nervous system parameters were evaluated under restrained and non-restrained conditions using a FOB in Subset A. Neurologic, autonomic, and behavioral investigations were performed in the pre-test, pre-dose, and 1 hour after dosing on Day 1.

[6] = Functional observation battery (FOB), central nervous system, in dogs; type: in vivo; conditions: dog, FOB 1 hour after dosing
From the text: as §10

In the case of CC(C)C[C@@H]1NC(=O)[C@H](Cc2cccc(NC(=O)CCCS(N)(=O)=O)c2)NC(=O)[C@H](CC(=O)O)NC(=O)[C@H]2CCCN2C(=O)[C@H](CCC(=O)O)NC(=O)[C@@H](NC(=O)[C@H](CCC(N)=O)NC(=O)CN2CCN(C(=O)CN3CCN(CC(=O)O)CCN(CC(=O)O)CCN(CC(=O)O)CC3)CC2)CSCc2cccc(c2)CSC[C@@H](C(N)=O)NC(=O)[C@H](CO)NC(=O)[C@H](Cc2c[nH]c3ccccc23)NC(=O)[C@H]([C@@H](C)O)NC1=O [DPI-4452, DOTA-PPAc-Gln-[Cys(3MeBn)-Glu-pro-Asp-Af3(Cpsu)-Leu-Thr-Trp-Ser-Cys]-NH2] ({DOTA}-[X1]QCE[dP]D[Phe(3-NHCO(CH2)3SO2NH2)]LTWSC-NH2; linker 3-12 via mXylylene), the tissue uptake ([1]; SK-RC-52, Mean ± SEM, N=3, read-out: Peak Tumor Uptake) is reported as 9.42 ± 1.53 %ID/g, the tissue uptake ([1]; SK-RC-52 mice, read-out: Peak Kidney uptake) is reported as 3.43 ± 0.24 %ID/g and the “Time to peak uptake in tumor” value ([2]; SK-RC-52) is reported as 1 h. For the same compound, the “% remaining tumor uptake at 24 h p.i.” value ([2]; SK-RC-52, Mean ± SEM) was 73.3 ± 0.8%, the “Blood uptake at 4 h p.i.” value ([2]; SK-RC-52 mice) was 0.05 ± 0.01 % ID/g and the “Kidney uptake at 24 h p.i.” value ([2]; SK-RC-52 mice) was 0.95 ± 0.05 % ID/g. For the same compound, the “Liver uptake at 4 h p.i.” value ([2]; SK-RC-52 mice) was 0.18 ± 0.04 % ID/g, the tissue uptake ([3]; ht-29 tumor, HT-29, Mean ± SEM, N=3, read-out: Peak Tumor Uptake) was 5.21 ± 1.22 %ID/g and the tissue uptake ([3]; kidney, HT-29 mice, read-out: Peak Kidney uptake) was 5.37 ± 1.45 %ID/g. The “% remaining tumor uptake at 24 h p.i.” value ([4]; HT-29) was 65.8 ± 3.8%, the “Time to peak uptake in tumor” value ([4]; HT-29) was 2 h and the “Blood uptake at 4 h p.i.” value ([4]; HT-29 mice) was 0.04 ± 0.002 % ID/g. The “Kidney uptake at 24 h p.i.” value ([4]; HT-29 mice) was 1.41 ± 0.11 % ID/g, the “Liver uptake at 4 h p.i.” value ([4]; HT-29 mice) was 0.12 ± 0.005 % ID/g and the “Cardiovascular or respiratory parameters (heart rate, arterial blood pressure, ECG, respiratory rate)” value [5] was “no related effect on cardiovascular or respiratory parameters”. For the same compound, the “Central nervous system (neurologic, autonomic, behavioral domains)” value [6] was “No effects were observed on the central nervous system”.
